Test results published in the supplement of paper PMC10307832.

Experiments:
Test in all cases: relative viability (nuclei count vs DMSO), 5 days (fraction); higher = more cells survive
Cediranib + Decitabine = compound: COc1cc2c(Oc3ccc4[nH]c(C)cc4c3F)ncnc2cc1OCCCN1CCCC1 [Cediranib] + Nc1ncn([C@H]2C[C@H](O)[C@@H](CO)O2)c(=O)n1 [Decitabine] (partner 2 µM)
How it was run: (§1)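 Relative viability is defined as nuclei in treated wells over nuclei in vehicle wells. Duplicate plates were run and medians reported. Lung cancer cell lines in 1536-well plates were dosed by pin tool one day after seeding, with one drug or with a fixed anchor-drug dose plus five library-drug doses (not always all listed) in √10 steps, and nuclei were counted after 5 days.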

Cediranib + Palbociclib = compound: COc1cc2c(Oc3ccc4[nH]c(C)cc4c3F)ncnc2cc1OCCCN1CCCC1 [Cediranib] + CC(=O)c1c(C)c2cnc(Nc3ccc(N4CCNCC4)cn3)nc2n(C2CCCC2)c1=O [Palbociclib] (partner 0.5 µM)
How it was run: as §1

Decitabine + Foretinib = compound: Nc1ncn([C@H]2C[C@H](O)[C@@H](CO)O2)c(=O)n1 [Decitabine] + COc1cc2c(Oc3ccc(NC(=O)C4(C(=O)Nc5ccc(F)cc5)CC4)cc3F)ccnc2cc1OCCCN1CCOCC1 [Foretinib] (partner 0.25 µM)
How it was run: as §1

[1] = compound: O=C(C[C@H]1NCCC[C@@H]1O)Cn1cnc2cc(Br)c(Cl)cc2c1=O (racemic) [Halofuginone] + C[C@]1(O)C[C@@H](c2nc(-c3ccc4ccc(-c5ccccc5)nc4c3)c3c(N)nccn32)C1 [Linsitinib] (partner 1 µM)
How it was run: as §1

Row | Cell Line | relative viability (Cediranib + Decitabine; first compound 0.04 µM) | relative viability (Cediranib + Decitabine; first compound 0.1265 µM) | relative viability (Cediranib + Decitabine; first compound 0.4 µM) | relative viability (Cediranib + Decitabine; first compound 1.265 µM) | relative viability (Cediranib + Decitabine; first compound 4 µM) | relative viability (Cediranib + Palbociclib; first compound 0.04 µM) | relative viability (Cediranib + Palbociclib; first compound 0.1265 µM) | relative viability (Cediranib + Palbociclib; first compound 0.4 µM) | relative viability (Cediranib + Palbociclib; first compound 1.265 µM) | relative viability (Cediranib + Palbociclib; first compound 4 µM) | relative viability (Decitabine + Foretinib; first compound 0.04 µM) | relative viability (Decitabine + Foretinib; first compound 0.1265 µM) | relative viability (Decitabine + Foretinib; first compound 0.4 µM) | relative viability (Decitabine + Foretinib; first compound 1.265 µM) | relative viability (Decitabine + Foretinib; first compound 4 µM) | relative viability ([1]; first compound 0.001 µM) | relative viability ([1]; first compound 0.003162 µM) | relative viability ([1]; first compound 0.01 µM) | relative viability ([1]; first compound 0.03162 µM) | relative viability ([1]; first compound 0.1 µM)
1 | 201T | 0.876 | 0.89 | 0.889 | 0.868 | 0.878 | 0.368 | 0.429 | 0.352 | 0.372 | 0.341 | 1.18 | 1.35 | 1.02 | 0.744 | 0.727 | 1.07 | 1.08 | 1.03 | 0.967 | 0.724
2 | A549 | 0.449 | 0.115 | 0.272 | 0.258 | 0.319 |  |  |  |  |  | 0.719 | 0.634 | 0.448 | 0.143 | 0.0978 | 0.653 | 0.556 | 0.612 | 0.559 | 0.286
3 | A-427 | 0.566 |  | 0.537 | 0.537 | 0.66 | 0.524 |  | 0.481 | 0.458 | 0.502 | 0.653 | 0.635 | 0.354 | 0.264 | 0.242 | 1.18 | 1.13 | 1.02 | 1.09 | 1.08
4 | ABC-1 | 0.866 | 1.11 | 1.19 | 1.05 | 1.04 | 0.766 | 1.04 | 0.538 | 0.853 | 0.426 | 0.979 | 0.912 | 0.763 | 0.839 | 0.67 | 0.921 | 0.947 | 0.763 | 0.625 | 0.961
5 | BEN | 0.732 | 0.431 | 0.74 | 0.509 | 0.722 | 0.437 | 0.412 | 0.489 | 0.451 | 0.47 | 0.596 | 0.566 | 0.35 | 0.437 | 0.38 | 0.965 | 0.912 | 1.03 | 0.841 | 0.352
6 | CAL-12T |  |  |  |  |  | 0.535 | 0.408 | 0.411 | 0.466 | 0.666 | 1.08 | 0.883 |  | 0.618 | 0.419 | 0.842 | 0.838 | 0.659 | 0.866 | 0.649
7 | COR-L23 | 0.528 | 0.44 | 0.402 | 0.332 | 0.484 | 0.282 | 0.349 | 0.279 | 0.353 | 0.263 | 0.597 | 0.605 | 0.473 | 0.353 | 0.246 | 0.973 | 0.91 | 0.972 | 0.876 | 0.102
8 | COR-L 105 | 0.65 | 0.676 | 0.629 | 0.601 | 0.729 | 0.413 | 0.405 | 0.426 | 0.394 | 0.414 | 1.2 | 0.98 | 0.881 | 0.633 | 0.554 | 1.13 | 0.932 | 0.764 | 0.748 | 0.753
9 | Calu-6 |  |  |  |  |  |  |  |  |  |  | 0.698 | 0.525 | 0.275 | 0.243 | 0.217 | 1 |  | 0.932 | 0.712 | 0.35
10 | ChaGo-K-1 | 0.51 | 0.376 | 0.506 | 0.57 | 0.784 | 0.979 | 0.922 | 0.961 | 0.996 | 0.986 | 0.819 | 0.683 | 0.507 | 0.376 | 0.421 |  |  |  |  | 
11 | EBC-1 |  |  |  |  |  |  |  |  |  |  | 0.0865 | 0.0957 | 0.106 | 0.0836 | 0.0866 | 0.959 | 1.07 | 0.784 | 0.656 | 0.251
12 | EKVX | 0.332 | 0.342 | 0.341 |  | 0.392 | 0.394 | 0.386 | 0.326 |  | 0.316 | 0.65 | 0.995 | 0.605 | 0.353 | 0.365 | 1.02 | 0.966 | 0.916 | 1.06 | 0.762
13 | EMC-BAC-2 | 0.953 |  | 0.989 | 0.918 | 1.04 | 0.519 | 0.562 | 0.529 | 0.51 | 0.499 | 0.936 | 0.861 | 0.762 | 0.66 | 0.588 | 0.813 | 0.872 | 0.798 | 0.785 | 0.641
14 | EPLC-272H | 0.352 |  | 0.338 | 0.406 | 0.354 | 0.297 |  | 0.312 | 0.327 | 0.318 |  | 0.611 | 0.0722 | 0.304 | 0.35 | 1.28 | 1.17 | 1.06 | 1.2 | 1.13
15 | H3255 | 0.534 |  | 0.601 |  | 0.487 | 0.322 | 0.322 | 0.316 | 0.308 | 0.334 |  | 0.652 | 0.484 | 0.587 | 0.513 | 0.913 | 0.952 | 0.876 | 0.941 | 0.805
16 | HARA | 0.595 | 0.593 | 0.517 | 0.782 | 0.582 | 0.249 | 0.32 | 0.298 | 0.301 | 0.211 | 0.641 | 0.558 | 0.387 | 0.215 | 0.165 | 1.02 | 0.981 | 0.79 | 1.02 | 0.828
17 | HCC-15 | 0.645 | 0.433 | 0.575 | 0.688 | 0.644 | 0.69 |  | 0.681 | 0.751 | 0.678 | 0.939 | 0.957 | 0.542 | 0.56 | 0.434 | 0.914 | 0.908 | 0.839 | 0.92 | 0.688
18 | HCC-44 | 0.932 | 0.629 | 0.93 | 0.934 | 0.958 | 0.983 | 0.917 | 0.974 | 0.947 | 1.01 |  |  |  |  |  | 0.67 | 0.678 | 0.594 | 0.682 | 0.341
